{"source": "patent US5451411A", "about": "“Methods and compositions for the oral delivery of therapeutic agents” (University of Washington, priority 1993, dated 1995)", "key": {"[1]": {"system": "mouse anti-TGF-β1 monoclonal antibody, 1D11", "assay": "ELISA measured binding activity (immunoreactivity) of TGF-β1", "procedure": "The ability of released TGF-β1 from both untreated and acid treated beads (as described above) to be recognized (bound) by a monoclonal antibody was assayed by ELISA as follows. An enzyme linked immunosorbent assay (ELISA) was used to quantitate the amount of immunoreactive TGF-β1 released from the untreated (PBS) and acid treated (HCl) alginate beads. The ELISA was based on the ability of a mouse anti-TGF-β1 monoclonal antibody, 1D11 (Bristol-Myers Squibb, Seattle, WA), to bind to the TGF-β1 molecule. When the 1D11 antibody was coated on 96-well immunoassay plates it captured TGF-β1 from the applied sample and standard solutions. Captured TGF-β1 was then bound by biotinylated 1D11 antibody which in turn was bound by a horseradish peroxidase/avidin D conjugate (Vector Labs cat #A-2004). A color reaction occurred by adding a chromophore/substrate solution of 3,3',5,5'-tetramethylbenzidine in CPB containing hydrogen peroxide. The reaction was stopped with the addition of 1 N sulfuric acid and the A450 was determined by a plate reader. Concentrations of the unknown samples were quantified relative to a TGF-β1 standard curve run on the same plate.\nThe immunoreactivity of TGF-β1 in solution in the presence of anionic amino acids, polyanions and polycations was studied using the ELISA procedure described in Example 2. To 1 mg/mL solutions of TGF-β1 in 5 mM HCl was added from 0 to 0.14%(w/v) of glutamic acid, aspartic acid, poly-L-aspartic acid (PLAA, Mw=13 kDa), sodium carboxymethyl cellulose (Na CMC, high viscosity), or polyacrylic acid (PAA, 2, 90 or 750 kDa). The reactivity of the TGF-β1 was then determined by the ELISA procedure, as described in Example 2.\nNext, the ability of the additives to […] was investigated. Alginate solutions were prepared in accordance with the procedure of Example 1, incorporating 50 μg of TGF-β1, 0-0.15% (w/v) of sodium alginate and 0.1-1.0 mg (up to 0.125% w/v) of PAA (750 kDa), PLAA (13 kDa), NaCMC high viscosity or glutamic acid. The immunoreactivity of TGF-β1 was determined by ELISA as described in Example 2.\nAlginate beads were prepared according to the procedure of Example 1 incorporating 50 μg TGF-β1 and 0.1-1.0 mg of additives. […] In addition, Poly-L-Lysine (PLL;123 kDa) was incorporated as a potential polycationic competitor. The additives were incorporated at an alginate:additive w/w ratio of from 75:10 to 75:1 as indicated below in Table 3.\nTo further assess the effect of amount of PAA incorporation on immunoreactivity of released TGF-β1, alginate beads were prepared by incubating TGF-β1 and PAA (90 kDa) for either 5 or 60 minutes (see FIG. 7) in w/w ratios of 75:1, 75:6 and 75:10, followed by dilution, addition of alginate, and bead formation in 1% CaCl2. The beads were acid treated in 0.1 N HCl at 37° C. for 30 minutes and then incubated at 37° C. in PBS, pH 7.4."}, "[2]": {"format": "physicochemical", "procedure": "Beads prepared in accordance with the procedure of Example 1 and containing 50 μg of ^125 I-TGF-β1 in 3.75-7.5 mg (original weight of alginate) were transferred to 15.0 mL polypropylene tubes containing 13.0 mL of PBS or of 0.1 N HCl at 37° C. In some cases, 1% BSA was added to the release media. The polypropylene tubes were gently shaken using a orbital shaker (200 rotations/minutes). At selected times, 100 μL aliquots were taken and counted for radioactivity. Care was taken so that aliquots contained no beads or bead fragments. The cumulative ^125 I-TGF-β1 released from the beads was calculated after correcting for volume changes. After 24 hours, the beads in 0.1 N HCl were transferred to PBS.\n(§1) Alginate beads containing TGF-β1 and 90 kDa PAA (75:10 w/w in alginate:PAA) were prepared following the procedure of Example 1, and were acid treated for 30 minutes at 37° C. in 0.1 N HCl, as described in Example 2. The beads were then placed in PBS, pH 7.4, and the immunoreactivity of released TGF-β1 was determined by ^125 I radiolabel and ELISA, as described in Example 2. In addition, a growth inhibitory assay (GIA) was used to determine the bioactivity of the TGF-β1. The GIA measures the ability of TGF-β1 to inhibit the growth of mink lung epithelial cells (ATCC #CCL64) (T. Ikedaet al., \"Human Transforming Growth Factor Type β2: Production By a Prostatic Adenocarcinoma Cell Line, Purification and Initial Characterization,\" Biochemistry 26:2406-2410 (1987)). The activity of the growth factor was determined by the inhibitory response of the cells to different concentrations of TGF-β1. Cell viability was based on the enzymatic cleavage by metabolically active cells of a tetrazolium salt into an orange/red formazan product. Prior to the assay cells were trypsinized and plated in a 96-well flat bottomed plate (Costar) at a concentration of 1000 cells/well. After allowing the cells to attach, samples containing the TGF-β1 and a reference standard were diluted to concentrations ranging from 1000 to 1.95 pg/ml and added to the wells. The cells were incubated for four days after which time a 100 μL solution containing 25 μg of sodium 3\"-[1-(phenylamino)-carbonyl]-3,4-tetrazolium-bis(4-methoxy-6-nitro) benzene sulfonic acid hydrate (Diagnostic Chemicals, Ltd.) and 5 mM phenazine methosulfate (Aldrich) in media was added to each well. The cells were then incubated for 7 hours and the plates read on a microplate reader at an absorbance of 450 nm with a 630 nm reference filter. The specific activity of a sample was calculated relative to the reference material."}, "[3]": {"system": "mink lung epithelial cells (ATCC #CCL64)", "assay": "Growth inhibitory assay (GIA) bioactivity of released TGF-β1", "format": "cell-based", "settings": "acid treated beads 75:10 w/w PAA 90 kDa; PBS pH 7.4", "procedure": "as §1, with “After allowing the cells to attach, samples containing the TGF-β1 and a reference standard were diluted to concentrations ranging from 1000 to 1.95 pg/ml and added to the wells. The cells were incubated for four days after which time a 100 μL solution containing 25 μg of sodium 3\"-[1-(phenylamino)-carbonyl]-3,4-tetrazolium-bis(4-methoxy-6-nitro) benzene sulfonic acid hydrate (Diagnostic Chemicals, Ltd.) and 5 mM phenazine methosulfate (Aldrich) in media was added to each well.” left out"}, "[4]": {"settings": "acid treated beads 75:10 w/w PAA 90 kDa, PBS pH 7.4"}}}
{"substance": "TGF-β1: TGF-β1 (1 mg/mL in 5 mM HCl) obtained from Bristol-Myers Squibb (Seattle, WA)", "values": [{"measurement": "Effect of hydrolysis time on ELISA measured binding activity of TGF-β1", "setting": "[1]; 0.1 N HCl, 37° C., 0.25-24 hr", "value": "no significant differences"}, {"measurement": "TGF-β1 released and immunoreactive (ELISA)", "setting": "[1]; [4]", "value": "over 80%"}, {"measurement": "% Binding Activity of released TGF-β1, HCl", "setting": "[1]; alginate beads acid treated in 0.1 N HCl, no additive", "value": 14, "unit": "%"}, {"measurement": "% Binding Activity of released TGF-β1, PBS", "setting": "[1]; alginate beads not acid treated (PBS), no additive", "value": 0, "unit": "%"}, {"measurement": "ELISA binding activity of TGF-β1 released from beads alone, in words", "setting": "[1]; beads without PAA", "value": "no binding activity"}, {"measurement": "Immunoreactivity of TGF-β1, in words", "setting": "[1]; released from calcium-alginate beads, in presence of alginate alone, or in presence of PAA (750 kDa)", "value": "little immunoreactivity"}, {"measurement": "Immunoreactivity of TGF-β1 with alginate, in words", "setting": "[1]; solution, 0.015% alginate, no additive", "value": "no immunoreactivity"}, {"measurement": "% Active TGF-β1, 0% alginate", "setting": "[1]; solution, % Alginate (w/v) 0", "value": 100, "unit": "%"}, {"measurement": "% Active TGF-β1, 0.0015% alginate", "setting": "[1]; solution, % Alginate (w/v) 0.0015", "value": 65, "unit": "%"}, {"measurement": "% Active TGF-β1, 0.015% alginate", "setting": "[1]; solution, % Alginate (w/v) 0.015", "value": 0, "unit": "%"}, {"measurement": "% Active TGF-β1, 0.15% alginate", "setting": "[1]; solution, % Alginate (w/v) 0.15", "value": 0, "unit": "%"}, {"measurement": "Effect of acid treatment time on dissolution profiles and TGF-β1 release rates", "setting": "[2]; 0.1 N HCl 37° C. 0.25-24 hr, then PBS pH 7.4", "value": "little difference"}, {"measurement": "Total release of TGF-β1 (125I radiolabel)", "setting": "[2]; [4]", "value": 90, "unit": "%"}, {"measurement": "TGF-β1 bioactive (GIA)", "setting": "[3]", "value": "more than 85%"}]}
